# Reference: article PMC7413254 (Nature Communications, 2020)
# Read-outs that look alike come from different tables or passages of the source.
# What was measured:
# non-expressing oocytes [1] = experiment: cells; type: cell-based, Xenopus laevis; settings: Xenopus laevis, Oocyte
# Method in brief: (§1)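 Inward transport into oocyte cytosol from pH 5.5 medium models PfCRT efflux from the acidic digestive vacuole. Incubation 1.5 h, 27.5 °C; termination by ice-cold washes; lysate radioactivity counted.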
# PfCRT^3D7 [2] = biological target: T1, PfCRT^3D7 (Plasmodium falciparum, UniProt Q8IBZ9); experiment: cell-based; type: cell-based; settings: total [3H]CQ transport; for inhibition at 500 µM: [test solute] = 0.5 mM; for inhibition at 1000 µM: [test solute] = 1 mM; for inhibition at 2000 µM: [test solute] = 2 mM
# T1 sequence (Q8IBZ9 59-398): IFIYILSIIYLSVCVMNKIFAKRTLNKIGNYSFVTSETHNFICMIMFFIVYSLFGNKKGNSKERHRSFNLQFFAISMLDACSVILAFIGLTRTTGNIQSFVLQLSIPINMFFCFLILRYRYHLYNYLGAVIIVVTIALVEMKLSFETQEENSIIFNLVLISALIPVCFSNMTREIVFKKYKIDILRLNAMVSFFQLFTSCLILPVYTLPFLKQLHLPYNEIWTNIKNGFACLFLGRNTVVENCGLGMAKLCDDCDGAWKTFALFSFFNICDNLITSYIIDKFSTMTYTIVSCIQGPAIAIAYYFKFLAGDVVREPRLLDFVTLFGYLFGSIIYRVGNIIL
# Method in brief: as §1
# PfCRT^Dd2 [3] = biological target: T2, PfCRT^Dd2 (Plasmodium falciparum, UniProt Q9N623, A220S/I356T/K76T/M74I/N326S/N75E/Q271E/R371I); experiment: [3H]CQ uptake into Xenopus oocytes, cis-inhibition by unlabelled solute; type: cell-based
# T2 sequence (Q9N623 whole entry A220S/I356T/K76T/M74I/N326S/N75E/Q271E/R371I): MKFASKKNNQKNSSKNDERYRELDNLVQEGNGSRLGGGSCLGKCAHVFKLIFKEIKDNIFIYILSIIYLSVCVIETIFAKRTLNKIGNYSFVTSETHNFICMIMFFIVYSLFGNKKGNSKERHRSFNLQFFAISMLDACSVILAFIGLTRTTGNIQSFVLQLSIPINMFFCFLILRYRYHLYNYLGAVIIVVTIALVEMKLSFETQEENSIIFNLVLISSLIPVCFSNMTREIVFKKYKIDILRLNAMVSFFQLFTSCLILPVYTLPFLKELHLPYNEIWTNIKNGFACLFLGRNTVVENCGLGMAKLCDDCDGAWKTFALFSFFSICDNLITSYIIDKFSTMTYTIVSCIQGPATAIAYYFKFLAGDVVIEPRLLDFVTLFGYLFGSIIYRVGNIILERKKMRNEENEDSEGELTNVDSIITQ
# Method in brief: as §1
# PfCRT^Ecu1110 [4] = biological target: T3, PfCRT^Ecu1110 (Plasmodium falciparum, UniProt Q9N623, A220S/I356L/K76T/N326D); experiment: as above; type: cell-based
# T3 sequence (Q9N623 whole entry A220S/I356L/K76T/N326D): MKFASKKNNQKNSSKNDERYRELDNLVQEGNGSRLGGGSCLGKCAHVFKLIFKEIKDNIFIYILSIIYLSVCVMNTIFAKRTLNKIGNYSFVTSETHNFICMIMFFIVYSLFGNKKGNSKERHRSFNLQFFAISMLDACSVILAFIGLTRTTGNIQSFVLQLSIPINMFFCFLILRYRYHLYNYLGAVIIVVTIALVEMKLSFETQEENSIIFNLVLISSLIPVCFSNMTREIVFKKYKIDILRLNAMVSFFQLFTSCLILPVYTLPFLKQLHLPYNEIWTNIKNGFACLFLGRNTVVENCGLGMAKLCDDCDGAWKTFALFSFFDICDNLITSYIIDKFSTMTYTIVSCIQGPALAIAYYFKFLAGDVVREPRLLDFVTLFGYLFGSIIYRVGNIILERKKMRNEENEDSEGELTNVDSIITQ
# Method in brief: as §1
# non-expressing oocytes [5] = type: cell-based, Xenopus laevis; settings: total [3H]CQ transport; for Uptake of [3H]CQ (% non-expressing oocyte control), trans-stimulation: non-expressing oocytes, normalised to the oocyte type control; for Uptake of [3H]CQ (% PfCRTDd2 control), trans-stimulation, non-expressing oocytes: mean ± SEM, SEM
# Method in brief: (§2)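 Oocytes (ten per treatment, ≥4 independent frogs/days) were preloaded by injecting VF-6 in 25 nL ND96 at pH 5.0, 5.5, 6.0 or 7.0, or Na^+-free choline buffer, then uptake run 1.5 h, 27.5 °C, ND96 pH 5.5 by default. Internal concentrations assumed ~400 nL oocyte volume.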
# PfCRT^3D7 [6] = biological target: T1, PfCRT^3D7; experiment: cell-based; type: cell-based
# Method in brief: as §2
# PfCRT^Dd2 [7] = biological target: T2, PfCRT^Dd2; experiment: cell-based; type: cell-based; settings: […]; for activity at 45000 µM: [test solute]i = 45 mM (30 mM for some solutes due to solubility)
# Method in brief: as §2
# PfCRT^Ecu1110 [8] = biological target: T3, PfCRT^Ecu1110; experiment: cell-based; type: cell-based; settings: […]
# Method in brief: as §2
# PfNT1 = biological target: T4, PfNT1 (Plasmodium falciparum, UniProt Q8IDM6); experiment: cell-based; type: cell-based; settings: for activity at 5000 µM: total [3H]CQ transport
# T4 construct: expressed in transfected cells; host or cells: Xenopus laevis oocytes (stage V-VI), cRNA-injected
# T4 sequence (Q8IDM6 whole entry): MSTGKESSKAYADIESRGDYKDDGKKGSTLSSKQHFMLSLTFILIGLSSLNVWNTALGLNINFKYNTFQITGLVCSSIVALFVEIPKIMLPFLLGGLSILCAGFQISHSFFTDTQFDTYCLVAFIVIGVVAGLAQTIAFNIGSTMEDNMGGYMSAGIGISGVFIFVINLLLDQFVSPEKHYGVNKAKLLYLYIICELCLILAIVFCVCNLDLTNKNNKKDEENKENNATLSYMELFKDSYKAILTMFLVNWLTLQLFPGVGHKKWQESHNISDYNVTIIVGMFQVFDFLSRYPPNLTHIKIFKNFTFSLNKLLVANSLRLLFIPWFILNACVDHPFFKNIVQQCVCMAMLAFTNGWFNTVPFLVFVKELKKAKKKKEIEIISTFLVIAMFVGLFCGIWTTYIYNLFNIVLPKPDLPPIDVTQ
# Method in brief: as §2
# PfCRT [9] = experiment: Test of solutes as potential co-substrates for influx of VF-6 via PfCRT into the oocyte; type: cell-based, Plasmodium falciparum; set-up: key: X: Compounds that have been tested as potential co-substrates but are not required for influx of VF-6 via PfCRT into the oocyte; settings: X = tested
# PfCRT [10] = experiment: Potential co-substrates tested for influx of VF-6 via PfCRT into the oocyte; type: cell-based, Plasmodium falciparum; set-up: key: X: Compounds that have been tested as potential co-substrates but are not required for influx of VF-6 via PfCRT into the oocyte
# [11] = read-out: Uptake of [3H]CQ (% PfCRTDd2 control), cis-inhibition, non-expressing oocytes, SEM
# [12] = read-out: Uptake of [3H]CQ (% non-expressing oocyte control), cis-inhibition
# [13] = PfCRT3D7 oocytes, normalised to the oocyte type control, read-out: Uptake of [3H]CQ (% PfCRT3D7 control), cis-inhibition
# [14] = mean ± SEM, SEM, read-out: Uptake of [3H]CQ (% PfCRTDd2 control), cis-inhibition, PfCRT3D7
# [15] = read-out: PfCRT-mediated [3H]CQ transport, cis-inhibition (% PfCRTDd2 control)
# [16] = read-out: Uptake of [3H]CQ (% PfCRTDd2 control), cis-inhibition, PfCRTDd2, SEM
# [17] = read-out: PfCRT-mediated [3H]CQ transport, cis-inhibition (% PfCRTEcu1110 control)
# [18] = read-out: Uptake of [3H]CQ (% PfCRTDd2 control), cis-inhibition, PfCRTEcu1110, SEM
# [19] = read-out: Uptake of [3H]CQ (% PfCRTEcu1110 control), cis-inhibition
# [20] = read-out: [3H]CQ transport (% PfCRTEcu1110 control), cis-inhibition, PfCRTEcu1110, SEM
smiles,measurement,setting,value
NCCCC[C@H](N)C(=O)O [L-lysine],inhibition at 500 µM,non-expressing oocytes [1]; [11],2.9 ± 0.03%
same,inhibition at 1000 µM,non-expressing oocytes [1]; [11],3.3 ± 0.07%
same,inhibition at 2000 µM,non-expressing oocytes [1]; [11],3.3 ± 0.03%
same,inhibition at 500 µM,non-expressing oocytes [1]; [12],101 ± 6.3%
same,inhibition at 1000 µM,non-expressing oocytes [1]; [12],101 ± 3.6%
same,inhibition at 2000 µM,non-expressing oocytes [1]; [12],100 ± 3.6%
same,inhibition at 500 µM,PfCRT^3D7 [2]; [13],100 ± 4.8%
same,inhibition at 1000 µM,PfCRT^3D7 [2]; [13],101 ± 3.7%
same,inhibition at 2000 µM,PfCRT^3D7 [2]; [13],100 ± 4.7%
same,inhibition at 500 µM,PfCRT^3D7 [2]; [14],3.4 ± 0.07%
same,inhibition at 1000 µM,PfCRT^3D7 [2]; [14],3.3 ± 0.03%
same,inhibition at 2000 µM,PfCRT^3D7 [2]; [14],3.1 ± 0.07%
same,inhibition at 500 µM,PfCRT^Dd2 [3]; [15],93 ± 5.2%
same,inhibition at 1000 µM,PfCRT^Dd2 [3]; [15],99 ± 3.6%
same,inhibition at 2000 µM,PfCRT^Dd2 [3]; [15],95 ± 4.1%
same,inhibition at 500 µM,PfCRT^Dd2 [3]; [16],96 ± 3.1%
same,inhibition at 1000 µM,PfCRT^Dd2 [3]; [16],100 ± 2.8%
same,inhibition at 2000 µM,PfCRT^Dd2 [3]; [16],97 ± 3.2%
same,inhibition at 500 µM,PfCRT^Ecu1110 [4]; [17],93 ± 6.7%
same,inhibition at 1000 µM,PfCRT^Ecu1110 [4]; [17],97 ± 5.2%
same,inhibition at 2000 µM,PfCRT^Ecu1110 [4]; [17],96 ± 4.1%
same,inhibition at 500 µM,PfCRT^Ecu1110 [4]; [18],31 ± 1.9%
same,inhibition at 1000 µM,PfCRT^Ecu1110 [4]; [18],32 ± 1.8%
same,inhibition at 2000 µM,PfCRT^Ecu1110 [4]; [18],32 ± 1%
same,inhibition at 500 µM,PfCRT^Ecu1110 [4]; [19],95 ± 3.6%
same,inhibition at 1000 µM,PfCRT^Ecu1110 [4]; [19],99 ± 4.6%
same,inhibition at 2000 µM,PfCRT^Ecu1110 [4]; [19],98 ± 3.2%
same,inhibition at 500 µM,PfCRT^Ecu1110 [4]; [20],28 ± 1.6%
same,inhibition at 1000 µM,PfCRT^Ecu1110 [4]; [20],29 ± 0.2%
same,inhibition at 2000 µM,PfCRT^Ecu1110 [4]; [20],29 ± 0.2%
same,"Uptake of [3H]CQ (% non-expressing oocyte control), trans-stimulation",non-expressing oocytes [5]; [test solute]i = 5 mM,101 ± 3.2 % non-expressing oocyte control
same,"Uptake of [3H]CQ (% non-expressing oocyte control), trans-stimulation",non-expressing oocytes [5]; [test solute]i = 45 mM (30 mM for some solutes due to solubility),99 ± 3.2 % non-expressing oocyte control
same,"Uptake of [3H]CQ (% PfCRTDd2 control), trans-stimulation, non-expressing oocytes",non-expressing oocytes [5]; [test solute]i = 5 mM (intracellular),2.3 ± 0.03 % PfCRTDd2 control
same,"Uptake of [3H]CQ (% PfCRTDd2 control), trans-stimulation, non-expressing oocytes",non-expressing oocytes [5]; [test solute]i = 45 mM (intracellular; 30 mM for some solutes due to solubility),3.3 ± 0.03 % PfCRTDd2 control
same,activity at 5000 µM,"PfCRT^3D7 [6]; PfCRT3D7 oocytes, [test solute]i = 5 mM, total [3H]CQ transport, normalised to the oocyte type control, read-out: Uptake of [3H]CQ (% PfCRT3D7 control), trans-stimulation",99 ± 3.7%
same,"[3H]CQ transport (% PfCRT3D7 control), trans-stimulation, PfCRT3D7",PfCRT^3D7 [6]; SEM,0.3 ± 0.02 % PfCRT3D7 control
same,activity at 5000 µM,"PfCRT^3D7 [6]; [test solute]i = 5 mM (intracellular), PfCRT3D7 oocytes, normalised to oocyte type control, read-out: PfCRT-mediated [3H]CQ transport, trans-stimulation (% PfCRT3D7 control)",97 ± 2%
same,activity at 45000 µM,"PfCRT^3D7 [6]; SEM, read-out: Uptake of [3H]CQ (% PfCRTDd2 control), trans-stimulation, PfCRT3D7",3.3 ± 0.06%
same,activity at 45000 µM,"PfCRT^3D7 [6]; read-out: PfCRT-mediated [3H]CQ transport, trans-stimulation (% PfCRT3D7 control)",96 ± 1.9%
same,activity at 45000 µM,"PfCRT^3D7 [6]; read-out: Uptake of [3H]CQ (% PfCRT3D7 control), trans-stimulation",98 ± 2.4%
same,activity at 5000 µM,"PfCRT^3D7 [6]; total [3H]CQ transport, [test solute]i = 5 mM (intracellular), mean ± SEM, SEM, read-out: Uptake of [3H]CQ (% PfCRTDd2 control), trans-stimulation, PfCRT3D7",3.3 ± 0.05%
same,activity at 5000 µM,"PfCRT^Dd2 [7]; pH 5.5, read-out: PfCRT-mediated [3H]CQ transport, trans-stimulation (% PfCRTDd2 control), [test solute]i = 5 mM (intracellular), PfCRTDd2 oocytes, normalised to oocyte type control",97 ± 3.4%
same,activity at 5000 µM,"PfCRT^Dd2 [7]; pH 5.5, read-out: Uptake of [3H]CQ (% PfCRTDd2 control), trans-stimulation, PfCRTDd2, total [3H]CQ transport, [test solute]i = 5 mM (intracellular), mean ± SEM, SEM",99 ± 2.4%
same,activity at 5000 µM,"PfCRT^Dd2 [7]; pH 5.5, read-out: Uptake of [3H]CQ (% PfCRTDd2 control), trans-stimulation, PfCRTDd2 oocytes, [test solute]i = 5 mM, total [3H]CQ transport, normalised to the oocyte type control",99 ± 2.4%
same,activity at 45000 µM,"PfCRT^Dd2 [7]; pH 5.5, read-out: Uptake of [3H]CQ (% PfCRTDd2 control), trans-stimulation, PfCRTDd2 oocytes, total [3H]CQ transport, normalised to the oocyte type control",97 ± 3.2%
same,activity at 5000 µM,"PfCRT^Dd2 [7]; pH 5.5, read-out: [3H]CQ transport (% PfCRTDd2 control), trans-stimulation, PfCRTDd2, trans-stimulation, [test solute]i = 5 mM (injected), PfCRT-mediated component (background subtracted), mean ± SEM, SEM",97 ± 3.4%
same,activity at 45000 µM,"PfCRT^Dd2 [7]; pH 5.5, read-out: [3H]CQ transport (% PfCRTDd2 control), trans-stimulation, PfCRTDd2, trans-stimulation, PfCRT-mediated component (background subtracted), mean ± SEM, SEM",95 ± 4.5%
same,activity at 5000 µM,"PfCRT^Ecu1110 [8]; pH 5.5, read-out: PfCRT-mediated [3H]CQ transport, trans-stimulation (% PfCRTEcu1110 control), [test solute]i = 5 mM (intracellular), PfCRTEcu1110 oocytes, normalised to oocyte type control",95 ± 3.8%
same,activity at 5000 µM,"PfCRT^Ecu1110 [8]; pH 5.5, read-out: Uptake of [3H]CQ (% PfCRTEcu1110 control), trans-stimulation, PfCRTEcu1110 oocytes, [test solute]i = 5 mM, total [3H]CQ transport, normalised to the oocyte type control",97 ± 4.4%
same,activity at 45000 µM,"PfCRT^Ecu1110 [8]; pH 5.5, read-out: Uptake of [3H]CQ (% PfCRTEcu1110 control), trans-stimulation, PfCRTEcu1110 oocytes, [test solute]i = 45 mM (30 mM for some solutes due to solubility), total [3H]CQ transport, normalised to the oocyte type control",99 ± 4.2%
same,activity at 5000 µM,"PfCRT^Ecu1110 [8]; read-out: Uptake of [3H]CQ (% PfCRTDd2 control), trans-stimulation, PfCRTEcu1110, total [3H]CQ transport, [test solute]i = 5 mM (intracellular), mean ± SEM, SEM",35 ± 1.8%
same,activity at 45000 µM,"PfCRT^Ecu1110 [8]; read-out: Uptake of [3H]CQ (% PfCRTDd2 control), trans-stimulation, PfCRTEcu1110, total [3H]CQ transport, [test solute]i = 45 mM (intracellular; 30 mM for some solutes due to solubility), mean ± SEM, SEM",35 ± 1.6%
same,activity at 5000 µM,"PfNT1; PfNT1 oocytes, [test solute]i = 5 mM, normalised to the oocyte type control, read-out: Uptake of [3H]CQ (% PfNT1 control), trans-stimulation",100 ± 3.6%
same,activity at 45000 µM,"PfNT1; SEM, read-out: Uptake of [3H]CQ (% PfCRTDd2 control), trans-stimulation, PfNT1",2.8 ± 0.05%
same,activity at 45000 µM,"PfNT1; read-out: Uptake of [3H]CQ (% PfNT1 control), trans-stimulation",99 ± 3.7%
same,activity at 5000 µM,"PfNT1; [test solute]i = 5 mM (intracellular), mean ± SEM, SEM, read-out: Uptake of [3H]CQ (% PfCRTDd2 control), trans-stimulation, PfNT1",2.1 ± 0.01%
same,Tested as potential co-substrate but not required for influx of VF-6 via PfCRT into the oocyte,PfCRT [9],X
same,Tested as potential co-substrate but not required for influx of VF-6 via PfCRT into the oocyte,PfCRT [10],X
